Measurements taken from patent publication US8952024B2, “Herbicidal pyrimidone derivatives” (E I du Pont de Nemours and Company, priority 2009, dated 2015).

Assays:
Format in all cases: in vivo
[1] = tested on: barnyardgrass (Echinochloa crus-galli); experiment: Test B flooded paddy test; details: for Plant response rating, Barnyardgrass: Flood (flooded paddy test), 13 to 15 days; for Barnyardgrass plant response rating: Flood, scale 0 to 100 (0 no effect, 100 complete control); for Plant response rating, Flood, Barnyardgrass: 250 g ai/ha, flooded paddy test, visual rating on 0 to 100 scale (0 no effect, 100 complete control) after 13 to 15 days
Summary of the method: (§1)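 Post-flood paddy application: compounds are introduced into water 3 cm deep over the soil, reaching plants at the 2-leaf stage. The water level is maintained, and after 13–15 days under greenhouse conditions, response is judged by eye relative to controls, where 100 means complete control.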

[2] = tested on: umbrella sedge (Cyperus difformis); experiment: Test B flooded paddy test; details: for Plant response rating, Sedge, Umbrella: Flood (flooded paddy test), 13 to 15 days; for Sedge, Umbrella plant response rating: Flood, scale 0 to 100 (0 no effect, 100 complete control); for Plant response rating, Flood, Sedge, Umbrella: 250 g ai/ha, flooded paddy test, visual rating on 0 to 100 scale (0 no effect, 100 complete control) after 13 to 15 days
Summary of the method: as §1

[3] = tested on: rice (Oryza sativa); experiment: Test B flooded paddy test; details: for Plant response rating, Rice: Flood (flooded paddy test), 13 to 15 days; for Rice plant response rating: Flood, scale 0 to 100 (0 no effect, 100 complete control); for Plant response rating, Flood, Rice: 250 g ai/ha, flooded paddy test, visual rating on 0 to 100 scale (0 no effect, 100 complete control) after 13 to 15 days
Summary of the method: as §1

[4] = tested on: ducksalad (Heteranthera limosa); experiment: Test B flooded paddy test; details: for Plant response rating, Ducksalad: Flood (flooded paddy test), 13 to 15 days; for Ducksalad plant response rating: Flood, scale 0 to 100 (0 no effect, 100 complete control); for Plant response rating, Flood, Ducksalad: 250 g ai/ha, flooded paddy test, visual rating on 0 to 100 scale (0 no effect, 100 complete control) after 13 to 15 days
Summary of the method: as §1

[5] = tested on: barnyardgrass (Echinochloa crus-galli); experiment: Test A pre-/postemergence plant response
Summary of the method: (§2)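 Injury scores (0, no effect; 100, complete control) come from visual comparison with untreated controls roughly ten days post-treatment. Test chemicals in a surfactant-containing non-phytotoxic solvent were applied as a directed soil spray preemergence and to one- to two-leaf seedlings postemergence.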

[6] = tested on: corn (Zea mays); experiment: Test A pre-/postemergence plant response
Summary of the method: as §2

[7] = tested on: pigweed (Amaranthus retroflexus); experiment: Test A pre-/postemergence plant response
Summary of the method: as §2

[8] = tested on: morningglory (Ipomoea spp.); experiment: Test A pre-/postemergence plant response
Summary of the method: as §2

[9] = tested on: velvetleaf (Abutilon theophrasti); experiment: Test A pre-/postemergence plant response
Summary of the method: as §2

[10] = tested on: giant foxtail (Setaria faberii); experiment: Test A pre-/postemergence plant response
Summary of the method: as §2

[11] = tested on: large crabgrass (Digitaria sanguinalis); experiment: Test A pre-/postemergence plant response
Summary of the method: as §2

[12] = tested on: wheat (Triticum aestivum); experiment: Test A pre-/postemergence plant response
Summary of the method: as §2

[13] = 125 g ai/ha, scale 0 to 100, 0 is no effect, 100 is complete control
[14] = Postemergence, 125 g ai/ha, 0 to 100 scale where 0 is no effect and 100 is complete control
[15] = Postemergence, 500 g ai/ha, visual injury, 0 to 100 scale (0 no effect, 100 complete control), approx. ten days
[16] = Preemergence, 125 g ai/ha, 0 to 100 scale, 0 = no effect, 100 = complete control
[17] = Preemergence, 500 g ai/ha, 0 to 100 scale, 0 = no effect, 100 = complete control
[18] = 62 g ai/ha, scale of 0 to 100 where 0 is no effect and 100 is complete control
[19] = 31 g ai/ha, scale of 0 to 100 where 0 is no effect and 100 is complete control
[20] = 62 g ai/ha, scale 0 to 100, 0 is no effect, 100 is complete control
[21] = Postemergence, 125 g ai/ha, visual injury, 0 to 100 scale (0 no effect, 100 complete control), approx. ten days
[22] = Postemergence, 500 g ai/ha, 0 to 100 scale, 0 = no effect, 100 = complete control, approx. ten days
[23] = Preemergence, 500 g ai/ha, visual injury, 0 to 100 scale (0 no effect, 100 complete control), approx. ten days

CCc1ccc(-n2c(-c3cccc(Br)c3)ncc(C(=O)C3=C(O)CCCC3=O)c2=O)cc1 [Compound 177]
40: Plant response rating, Velvetleaf [9, 17] | Foxtail, Giant plant response rating [10, 15]
0: Barnyardgrass plant response rating ([1]; 31 g ai/ha) | Plant response rating, Barnyardgrass [5, 16] | Plant response rating, Corn [6, 14] | Corn plant response rating [6, 15] | Plant response rating, Corn [6, 16] | Plant response rating, Pigweed [7, 16] | Plant response rating, Morningglory [8, 14] | Plant response rating, Morningglory [8, 16] | Plant response rating, Foxtail, Giant [10, 14] | Plant response rating, Foxtail, Giant [10, 16] | Plant response rating, Crabgrass, Large [11, 16] | Plant response rating, Wheat [12, 14] | Wheat plant response rating [12, 15] | Plant response rating, Wheat [12, 16] | Plant response rating, Wheat [12, 17]
75: Plant response rating, Sedge, Umbrella [2, 13]
30: Ducksalad plant response rating ([4]; 31 g ai/ha) | Plant response rating, Crabgrass, Large [11, 14]
90: Plant response rating, Velvetleaf [9, 14]
10: Plant response rating, Barnyardgrass [5, 17] | Morningglory plant response rating [8, 15] | Plant response rating, Velvetleaf [9, 16] | Plant response rating, Crabgrass, Large [11, 17]
15: Plant response rating, Barnyardgrass [1, 13] | Rice plant response rating ([3]; 31 g ai/ha)
20: Plant response rating, Rice [3, 13] | Plant response rating, Corn [6, 17] | Plant response rating, Foxtail, Giant [10, 17]
50: Plant response rating, Pigweed [7, 17]
60: Sedge, Umbrella plant response rating ([2]; 31 g ai/ha)
80: Plant response rating, Barnyardgrass [5, 14]
70: Plant response rating, Ducksalad [4, 13] | Crabgrass, Large plant response rating [11, 15]
100: Barnyardgrass plant response rating [5, 15] | Plant response rating, Pigweed [7, 14] | Pigweed plant response rating [7, 15] | Velvetleaf plant response rating [9, 15]

CCn1c(Cc2ccccc2)ncc(C(=O)C2=C(O)CCCC2=O)c1=O [Compound 200]
38: Plant response rating, Flood, Barnyardgrass [1] | Ducksalad plant response rating ([4]; 31 g ai/ha)
80: Pigweed plant response rating [7, 15]
30: Sedge, Umbrella plant response rating ([2]; 31 g ai/ha)
60: Plant response rating, Pigweed [7, 14] | Morningglory plant response rating [8, 15] | Plant response rating, Velvetleaf [9, 17]
33: Plant response rating, Sedge, Umbrella [2, 18]
50: Plant response rating, Morningglory [8, 14]
43: Plant response rating, Sedge, Umbrella [2, 13]
85: Plant response rating, Flood, Ducksalad [4] | Plant response rating, Ducksalad [4, 13]
83: Plant response rating, Ducksalad [4, 18]
100: Plant response rating, Velvetleaf [9, 14] | Velvetleaf plant response rating [9, 15]
70: Plant response rating, Flood, Sedge, Umbrella [2]
0: Plant response rating, Barnyardgrass [1, 18] | Barnyardgrass plant response rating ([1]; 31 g ai/ha) | Plant response rating, Rice [3, 18] | Rice plant response rating ([3]; 31 g ai/ha) | Plant response rating, Barnyardgrass [5, 14] | Plant response rating, Barnyardgrass [5, 16] | Plant response rating, Barnyardgrass [5, 17] | Plant response rating, Corn [6, 14] | Corn plant response rating [6, 15] | Plant response rating, Corn [6, 16] | Plant response rating, Corn [6, 17] | Plant response rating, Pigweed [7, 16] | Plant response rating, Morningglory [8, 16] | Plant response rating, Velvetleaf [9, 16] | Plant response rating, Foxtail, Giant [10, 14] | Plant response rating, Foxtail, Giant [10, 16] | Plant response rating, Foxtail, Giant [10, 17] | Plant response rating, Crabgrass, Large [11, 16] | Plant response rating, Crabgrass, Large [11, 17] | Plant response rating, Wheat [12, 14] | Wheat plant response rating [12, 15] | Plant response rating, Wheat [12, 16] | Plant response rating, Wheat [12, 17]
10: Plant response rating, Rice [3, 13] | Barnyardgrass plant response rating [5, 15] | Foxtail, Giant plant response rating [10, 15] | Plant response rating, Crabgrass, Large [11, 14] | Crabgrass, Large plant response rating [11, 15]
23: Plant response rating, Barnyardgrass [1, 13] | Plant response rating, Flood, Rice [3]
20: Plant response rating, Pigweed [7, 17]

CCn1ncc(C(=O)c2cnc(-c3ccccc3)n(-c3ccccc3)c2=O)c1OS(=O)(=O)c1ccc(C)cc1 [Compound 16]
10: Plant response rating, Flood, Barnyardgrass [1] | Plant response rating, Flood, Rice [3] | Morningglory plant response rating [8, 21] | Crabgrass, Large plant response rating [11, 21] | Plant response rating, Wheat [12, 22]
100: Plant response rating, Velvetleaf [9, 22]
0: Plant response rating, Barnyardgrass [1, 19] | Plant response rating, Barnyardgrass [1, 20] | Plant response rating, Barnyardgrass [1, 13] | Plant response rating, Sedge, Umbrella [2, 19] | Plant response rating, Sedge, Umbrella [2, 20] | Plant response rating, Rice [3, 19] | Plant response rating, Rice [3, 20] | Plant response rating, Rice [3, 13] | Plant response rating, Ducksalad [4, 19] | Plant response rating, Barnyardgrass [5, 16] | Corn plant response rating [6, 21] | Plant response rating, Corn [6, 16] | Plant response rating, Morningglory [8, 16] | Plant response rating, Morningglory [8, 23] | Plant response rating, Velvetleaf [9, 16] | Wheat plant response rating [12, 21] | Plant response rating, Wheat [12, 16] | Plant response rating, Wheat [12, 23]
70: Plant response rating, Barnyardgrass [5, 23] | Plant response rating, Pigweed [7, 22] | Velvetleaf plant response rating [9, 21] | Plant response rating, Foxtail, Giant [10, 22] | Plant response rating, Foxtail, Giant [10, 23] | Plant response rating, Crabgrass, Large [11, 23]
50: Plant response rating, Flood, Sedge, Umbrella [2] | Pigweed plant response rating [7, 21] | Plant response rating, Pigweed [7, 23]
20: Barnyardgrass plant response rating [5, 21] | Plant response rating, Corn [6, 22] | Plant response rating, Corn [6, 23] | Plant response rating, Morningglory [8, 22]
40: Plant response rating, Sedge, Umbrella [2, 13] | Plant response rating, Ducksalad [4, 20] | Plant response rating, Velvetleaf [9, 23] | Plant response rating, Crabgrass, Large [11, 22] | Plant response rating, Crabgrass, Large [11, 16]
30: Plant response rating, Pigweed [7, 16] | Foxtail, Giant plant response rating [10, 21] | Plant response rating, Foxtail, Giant [10, 16]
60: Plant response rating, Barnyardgrass [5, 22]
75: Plant response rating, Flood, Ducksalad [4] | Plant response rating, Ducksalad [4, 13]

CCCc1ncc(C(=O)C2=C(O)CCCC2=O)c(=O)n1Cc1ccc(OC)c(OC)c1 [Compound 84]
100: Plant response rating, Pigweed [7, 14] | Plant response rating, Pigweed [7, 22] | Plant response rating, Pigweed [7, 23] | Plant response rating, Velvetleaf [9, 22]
90: Plant response rating, Pigweed [7, 16] | Plant response rating, Morningglory [8, 14] | Plant response rating, Morningglory [8, 22]
10: Plant response rating, Barnyardgrass [5, 22] | Plant response rating, Morningglory [8, 23] | Plant response rating, Crabgrass, Large [11, 22]
20: Plant response rating, Flood, Ducksalad [4] | Plant response rating, Corn [6, 22]
0: Plant response rating, Flood, Barnyardgrass [1] | Plant response rating, Barnyardgrass [1, 18] | Plant response rating, Barnyardgrass [1, 13] | Barnyardgrass plant response rating ([1]; 31 g ai/ha) | Plant response rating, Sedge, Umbrella [2, 18] | Sedge, Umbrella plant response rating ([2]; 31 g ai/ha) | Plant response rating, Flood, Rice [3] | Plant response rating, Rice [3, 18] | Plant response rating, Rice [3, 13] | Rice plant response rating ([3]; 31 g ai/ha) | Plant response rating, Ducksalad [4, 18] | Plant response rating, Ducksalad [4, 13] | Ducksalad plant response rating ([4]; 31 g ai/ha) | Plant response rating, Barnyardgrass [5, 14] | Plant response rating, Barnyardgrass [5, 16] | Plant response rating, Barnyardgrass [5, 23] | Plant response rating, Corn [6, 14] | Plant response rating, Corn [6, 16] | Plant response rating, Corn [6, 23] | Plant response rating, Morningglory [8, 16] | Plant response rating, Velvetleaf [9, 16] | Plant response rating, Foxtail, Giant [10, 14] | Plant response rating, Foxtail, Giant [10, 22] | Plant response rating, Foxtail, Giant [10, 16] | Plant response rating, Foxtail, Giant [10, 23] | Plant response rating, Crabgrass, Large [11, 14] | Plant response rating, Crabgrass, Large [11, 16] | Plant response rating, Crabgrass, Large [11, 23] | Plant response rating, Wheat [12, 14] | Plant response rating, Wheat [12, 22] | Plant response rating, Wheat [12, 16] | Plant response rating, Wheat [12, 23]
70: Plant response rating, Velvetleaf [9, 14]
40: Plant response rating, Velvetleaf [9, 23]
50: Plant response rating, Flood, Sedge, Umbrella [2]
30: Plant response rating, Sedge, Umbrella [2, 13]
